The record followed here is patent US20030216569A1, “Method of making HIV protease inhibitors” (priority 1993, published 2003).

In the experiment the test system is HIV-1 isolates IIIB and/or RF in MT-2 cells. In words: SRI primary anti-HIV screen, MTT assay of inhibition of HIV-induced cell killing in MT2 cells. The format is cell-based. The following applies: for IC50: Human immunodeficiency virus 1, IIIB, MT2, read-out: SRI MT2 IC50 ng/ml, MT2 cells; for SRI MT2 IC50: MT2 cells. From the text: I. Primary Drug Screening of Anti-HIV Compounds at Southern Research Institute (SRI) (Results recorded in Table 1 are designated “SRI CEM (ng/ml)” or “SRI MT2 (ng/ml)”)
A. Principle of MTT Assay:
SRI has an established program for the primary antiviral analysis of compounds in microtiter assays which measures the ability of a selected compound to inhibit HIV-induced cell killing. This assay involves the conversion of the tetrazolium dye MTT to a colored formazan product by mitochondrial enzymes in metabolically active cells. This assay system is used at SRI to screen over 30,000 compounds per year. Briefly, the assay involves the infection of CEM or MT2 cells in round bottom 96-well plates. The compound of interest is added just prior to infection. Following 6 days of incubation at 37° C. the plates are stained with MTT. The results of the assay are quantitated spectrophotometrically on a Molecular Devices Vmax plate reader. The data are analyzed by linear regression utilizing an in-house software program to calculate antiviral activity (IC25, IC50, IC95) and toxicity (TC25, TC50, TC95) as well as other values.
Primary antiviral assays are routinely performed in CEM or MT-2 cells.
B. Standard Screening Assays in CEM and MT-2 Cells
1. Compound dilution and delivery to the plates
Drugs are solubilized in the appropriate vehicle such as distilled water or DMSO if necessary. Latex gloves, lab coats and masks are used during all phases of the handling process to prevent exposure to potentially harmful agents. The drug is prepared at the appropriate concentration and stored at −20° C. until used by the screening laboratory. The first dilution of each compound is made in a dilution tube with medium to yield a concentration two-fold that of the highest test concentration. Sterile titer tubes are then used to make serial one half-log dilutions of each compound. Following drug dilution, the diluted compound is added to the appropriate well of a 96-well microtiter plate. […] When testing includes only six dilutions, two drugs can be assayed on a single microtiter plate. The drugs are added to the plate in a final volume of 100 microliters.
During the time the drug dilutions are prepared, cells are washed and counted. Viability is monitored by trypan blue dye exclusion and assays are not performed if the viability falls below 90%. Cells are maintained in an exponential growth phase and are split 1:2 on the day prior to assay to assure exponential growth rate.
For the primary screen, the cell lines utilized are CEM and MT-2. Unless otherwise indicated, the medium used is RPMI 1640 with 10% heat-inactivated fetal calf serum (FBS), glutamine and antibiotics.
Cells are propagated at 37° C. in an atmosphere of 5% CO2 in air. The virus employed for this work is HIV-1 isolates IIIB and/or RF, which are prepared by an acute infection process.
Briefly, virus-infected cells are pelleted on a daily basis beginning at three days post-infection until the virus has killed all of the cells in the culture. Reverse transcriptase activity and p24 ELISA are used to identify pools with the greatest amout of virus.
These 24-hour harvests are pooled, filtered and frozen at −90° C. Prior to use in the assay, the infectious pool of virus is titered on all available cell lines in order to determine the amount of virus required in the antiviral assay.
In general, pools produced by the acute infection method require the addition of one microliter of infectious virus per well resulting in the screening of drugs at a multiplicity of infection of 0.01. In this manner, enough virus is prepared and frozen to complete over one thousand microtiter plates, allowing the testing of up to two thousand compounds from a single stock of infectious virus. The use of a single stock of virus for a long period of testing has very favorable effects on the repeatability of the assay systems. […]
(Tetrazolium dyes change colour on reduction, which living cells bring about.)

In brackets after ≈: the same amount, converted by molar mass. Several values for one entry are separate records, joined by “and”; a condition that tells them apart may be missing. Equal values may be shown once.

Turning to `CC(C)(C)NC(=O)C1CC2CCCCC2CN1CC(O)C(Cc1ccccc1)NC(=O)c1cccc(O)c1F` (stereo not drawn) [Example 1, [3S-(3R*,4aR*,8aR*,2′S*,3′R*)]-2-[2′-Hydroxy-3′-phenylmethyl-4′-aza-5′-oxo-5′-(2″-fluoro-3″-hydroxyphenyl)pentyl]decahydroisoquinoline-3-N-t-butylcarboxamide], the IC50 turned out to be 1310 ng/mL (≈ 2.43 µM) and the “SRI MT2 IC50” value was 1.5 µg/mL.

Regarding `CC(C)(C)NC(=O)C1CC2CCCCC2CN1CC(O)C(Cc1ccccc1)NC(=O)c1cccnc1Cl` (stereo not drawn) [Example 2, [3S-(3R*,4aR*,8aR*,2′S*,3′R*)]-2-[2′-Hydroxy-3′-phenylmethyl-4′-aza-5′-oxo-5′-(2″-chloro-pyrid-3″-yl)pentyl] decahydroisoquinoline-3-N-t-butylcarboxamide], the IC50 was found to be 1580 ng/mL (≈ 2.92 µM) and the “SRI MT2 IC50” value worked out at 1.63 µg/mL. For `CCc1c(O)cccc1C(=O)NC(Cc1ccccc1)C(O)CN1CC2CCCCC2CC1C(=O)NC(C)(C)C` (stereo not drawn) [Example 3, [3S-(3R*,4aR*,8aR*,2′S*,3′R*)]-2-[2′-Hydroxy-3′-phenylmethyl-4′-aza-5′-oxo-5′-(2″-ethyl-3″-hydroxyphenyl)pentyl] decahydroisoguinoline-3-N-t-butylcarboxamide], in that order: 21.3 ng/mL (≈ 0.0387 µM) and 0.0215 µg/mL. For `CC(C)(C)NC(=O)C1CC2CCCCC2CN1CC(O)C(Cc1ccccc1)NC(=O)c1ccc[n+]([O-])c1` (stereo not drawn) [Example 5, [3S-(3R*,4aR*,8aR*,2′S*,3′R*)]-2-[2′-Hydroxy-3′-phenylmethyl-4′-aza-5′-oxo-5′-(pyrid-3″yl-N-oxidyl)pentyl] decahydroisoquinoline-3-N-t-butylcarboxamide], in that order: 7800 ng/mL (≈ 14.9 µM) and 5.03 µg/mL. For `CC(C)(C)NC(=O)C1CC2CCCCC2CN1CC(O)C(Cc1ccccc1)NC(=O)c1cccc(O)c1Cl` (stereo not drawn) [Example 11, [3S-(3R*,4aR*,8aR*,2′S*,3′R*)]-2-[2′-Hydroxy-3′-phenylmethyl-4′-aza-5′-oxo-5′-(2″-chloro-3″-hydroxyphenyl)pentyl] decahydroisoquinoline-3-N-t-butylcarboxamide], in that order: 649 ng/mL (≈ 1.17 µM) and 0.387 µg/mL.

For the compound `Cc1c(O)cccc1C(=O)NC(Cc1ccccc1)C(O)CN1CC2CCCCC2CC1C(=O)NC(C)(C)C` (stereo not drawn) [Example 12, [3S-(3R*,4aR*,8aR*,2′S*,3′R*)]-2-[2′-Hydroxy-3′-phenylmethyl-4′-aza-5′-oxo-5′-(2″-methyl-3″-hydroxyphenyl)pentyl] decahydroisoquinoline-3-N-t-butylcarboxamide], the “SRI MT2 IC50” value was 0.0243 µg/mL. With `CC(C)(C)NC(=O)C1CC2CCCCC2CN1CC(O)C(Cc1ccccc1)NC(=O)c1ccccc1C(F)(F)F` (stereo not drawn) [Example 15, [3S-(3R*,4aR*,8aR*,2′S*,3′R*)]-2-[2′-Hydroxy-3′-phenylmethyl-4′-aza-5′-oxo-5′-(2″-trifluoromethylphenyl)pentyl] decahydroisoquinoline-3-N-t-butylcarboxamide], the IC50 was 1680 ng/mL (≈ 2.93 µM) and the “SRI MT2 IC50” value worked out at 1.47 µg/mL. In the case of `CC(C)(C)NC(=O)C1CC2CCCCC2CN1CC(O)C(Cc1ccccc1)NC(=O)c1c(Cl)ccc(O)c1Cl` (stereo not drawn) [Example 17, [3S-(3R*,4aR*,8aR*,2′S*,3′R*)]-2-[2′-Hydroxy-3′-phenylmethyl-4′-aza-5′-oxo-5′-(2″,6″-dichloro-3″-hydroxyphenyl)pentyl] decahydroisoquinoline-3-N-t-butylcarboxamide], the “SRI MT2 IC50” value was 8.99 µg/mL and 5.39 µg/mL. For `Cc1c(N)cccc1C(=O)NC(Cc1ccccc1)C(O)CN1CC2CCCCC2CC1C(=O)NC(C)(C)C` (stereo not drawn) [Example 18, [3S-(3R*,4aR*,8aR*,2′S*,3′R*)]-2-[2′-Hydroxy-3′-phenylmethyl-4′-aza-5′-oxo-5′-(2″-methyl-3″-aminophenyl)pentyl] decahydroisoquinoline-3-N-t-butylcarboxamide], the IC50 is 254 ng/mL (≈ 0.475 µM) and the “SRI MT2 IC50” value turned out to be 0.232 µg/mL. For the compound `CC(C)c1c(O)cccc1C(=O)NC(Cc1ccccc1)C(O)CN1CC2CCCCC2CC1C(=O)NC(C)(C)C` (stereo not drawn) [Example 20, [3S-(3R*,4aR*,8aR*,2′S*,3′R*)]-2-[2′-Hydroxy-3′-phenylmethyl-4′-aza-5′-oxo-5′-(2″-iospropyl-3″-hydroxyphenyl)pentyl] decahydroisoquinoline-3-N-t-butylcarboxamide], the IC50 was determined as 144 ng/mL (≈ 0.255 µM). For the compound `CCCCc1c(O)cccc1C(=O)NC(Cc1ccccc1)C(O)CN1CC2CCCCC2CC1C(=O)NC(C)(C)C` (stereo not drawn) [Example 21, [3S-(3R*,4aR*,8aR*,2′S*,3′R*)]-2-[2′-Hydroxy-3′-phenylmethyl-4′-aza-5′-oxo-5′-(2″-butyl-3′″-hydroxyphenyl)pentyl] decahydroisoquinoline-3-N-t-butylcarboxamide], the IC50 came to 427 ng/mL (≈ 0.739 µM). The same measure, in the same setting: then `CCCc1c(O)cccc1C(=O)NC(Cc1ccccc1)C(O)CN1CC2CCCCC2CC1C(=O)NC(C)(C)C` (stereo not drawn) [Example 22, [3S-(3R*,4aR*,8aR*,2′S*,3′R*)]-2-[2′-Hydroxy-3′-phenylmethyl-4′-aza-5′-oxo-5′-(2″-propyl-3″-hydroxyphenyl)pentyl] decahydroisoquinoline-3-N-t-butylcarboxamide], with 53 ng/mL (≈ 0.094 µM). As for `Cc1c(O)cccc1C(=O)NC(Cc1ccccc1)C(O)CN1CC2CCCCC2CC1C(=O)NC(C)(C)C` (stereo not drawn) [Example 23, [3S-(3R*,4aR*,8aR*,2′S*,3′R*)]-2-[2′-Hydroxy-3′-phenylmethyl-4′-aza-5′-oxo-5′-(2″-methyl-3″-hydroxyphenyl)pentyl] decahydroisoquinoline-3-N-t-butylcarboxamide], the “SRI MT2 IC50” value is 0.00627 µg/mL.

With `Cc1c(O)cccc1C(=O)NC(CSc1ccc2ccccc2c1)C(O)CN1CC2CCCCC2CC1C(=O)NC(C)(C)C` (stereo not drawn) [Example 24, [3S-(3R*,4aR*,8aR*,2′S*,3′R*)]-2-[2′-Hydroxy-3′-(naphth-2-ylthiomethyl)-4′-aza-5′-oxo-5′-(2″-methyl-3″-hydroxyphenyl)pentyl] decahydroisoquinoline-3-N-t-butylcarboxamide], the IC50 was determined as 41.4 ng/mL (≈ 0.067 µM) and the “SRI MT2 IC50” value was found to be 0.0464 µg/mL. Turning to `Cc1c(O)cccc1C(=O)N[C@@H](CSc1ccc2ccccc2c1)[C@H](O)CN1CCCC[C@H]1C(=O)NC(C)(C)C` [Example 25, [2S-(2R*,2′S*,3′S*)]-1-[2′-Hydroxy-3′-(naphth-2-ylthiomethyl-4′-aza-5′-oxo-5′-(2″-methyl-3″-hydroxyphenyl)pentyl]piperidine-2-N-t-butylcarboxamide], the IC50 was 169 ng/mL (≈ 0.3 µM). On the same count and under the same terms, with `Cc1c(O)cccc1C(=O)N[C@@H](Cc1ccccc1)[C@H](O)CN1CCN(Cc2cccnc2)C[C@H]1C(=O)NC(C)(C)C` [Example 26, [2S-(2R*,2′S*,3′R*)]-1-[2′-Hydroxy-3′-phenylmethyl-4′-aza-5′-oxo-5′-(2″-methyl-3″-hydroxyphenyl)pentyl]-4-(pyrid-3′″-ylmethyl) piperazine-2-N-t-butylcarboxamide] the figure was 49 ng/mL (≈ 0.0854 µM). As to “[3S-(3R*,4aR*,8aR*,2′S*,3′S*)]-2-[2′-Hydroxy-3′-phenylmethyl-4′-aza-5′-oxo-5′-[2″-methyl-3″-N-(methylsulfonyl)amino-phenyl)]pentyl] decahydroisoguinoline-3-N-t-butylcarboxamide [Example 36]”, the “SRI MT2 IC50” value is 1.87 µg/mL and 2.3 µg/mL.
